Test results published in publication PMC8523698, “Preclinical characterization of an intravenous coronavirus 3CL protease inhibitor for the potential treatment of COVID19” (Nature Communications, 2021).
“And” between values parts separate entries of the source, which are not always exact repeats. Identical values can stand only once. Like-named read-outs stand apart in the source and are kept apart here.

Assays:
MATE1 = target: T1, MATE1 (Homo sapiens, UniProt Q96FL8); assay: Transporter inhibition using transfected HEK293 cells
T1 sequence (Q96FL8 1-570): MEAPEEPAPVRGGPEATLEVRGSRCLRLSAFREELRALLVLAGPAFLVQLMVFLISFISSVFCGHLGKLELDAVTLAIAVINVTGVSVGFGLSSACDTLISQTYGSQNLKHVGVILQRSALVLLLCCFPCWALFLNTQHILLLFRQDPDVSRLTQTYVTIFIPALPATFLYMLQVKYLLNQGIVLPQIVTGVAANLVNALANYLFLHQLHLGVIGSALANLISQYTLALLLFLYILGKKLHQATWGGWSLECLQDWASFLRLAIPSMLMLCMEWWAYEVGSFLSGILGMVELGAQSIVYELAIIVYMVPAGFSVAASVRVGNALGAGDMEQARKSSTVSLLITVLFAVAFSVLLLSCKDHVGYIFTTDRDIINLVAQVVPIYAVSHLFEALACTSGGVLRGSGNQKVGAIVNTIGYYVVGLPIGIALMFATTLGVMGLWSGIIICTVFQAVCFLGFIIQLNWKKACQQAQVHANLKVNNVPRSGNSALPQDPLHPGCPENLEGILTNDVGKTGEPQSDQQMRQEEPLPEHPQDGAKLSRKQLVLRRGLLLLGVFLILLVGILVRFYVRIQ

OAT1 = target: T2, OAT1 (Homo sapiens, UniProt Q4U2R8); assay: as above
T2 sequence (Q4U2R8 1-563): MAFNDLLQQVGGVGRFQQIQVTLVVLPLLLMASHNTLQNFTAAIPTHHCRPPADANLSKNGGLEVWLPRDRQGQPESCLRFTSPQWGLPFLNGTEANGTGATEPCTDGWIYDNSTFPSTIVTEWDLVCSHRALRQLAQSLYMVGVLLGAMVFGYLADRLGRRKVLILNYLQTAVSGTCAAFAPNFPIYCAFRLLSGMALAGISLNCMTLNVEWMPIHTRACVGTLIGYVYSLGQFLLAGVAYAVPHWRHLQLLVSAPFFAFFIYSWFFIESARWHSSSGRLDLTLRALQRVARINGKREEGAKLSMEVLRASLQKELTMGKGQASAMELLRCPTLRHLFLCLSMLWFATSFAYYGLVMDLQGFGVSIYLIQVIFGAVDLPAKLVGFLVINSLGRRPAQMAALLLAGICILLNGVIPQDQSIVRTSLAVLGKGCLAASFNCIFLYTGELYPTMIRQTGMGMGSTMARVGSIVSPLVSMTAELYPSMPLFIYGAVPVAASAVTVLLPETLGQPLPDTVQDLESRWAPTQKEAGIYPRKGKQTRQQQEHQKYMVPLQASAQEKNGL

[1] = Rat pharmacokinetic study; conditions: for AUC(0-inf): AUCinf; for Vd: Vdss
[2] = Plasma protein binding by equilibrium dialysis; conditions: for fraction unbound at 6 h, 5 uM / fraction unbound at 6 h: dog, plasma
CYP2D6 = CYP2D6 (Homo sapiens, UniProt P10635); assay: Reversible CYP inhibition in human liver microsomes
CYP2D6, sequence (P10635 whole entry): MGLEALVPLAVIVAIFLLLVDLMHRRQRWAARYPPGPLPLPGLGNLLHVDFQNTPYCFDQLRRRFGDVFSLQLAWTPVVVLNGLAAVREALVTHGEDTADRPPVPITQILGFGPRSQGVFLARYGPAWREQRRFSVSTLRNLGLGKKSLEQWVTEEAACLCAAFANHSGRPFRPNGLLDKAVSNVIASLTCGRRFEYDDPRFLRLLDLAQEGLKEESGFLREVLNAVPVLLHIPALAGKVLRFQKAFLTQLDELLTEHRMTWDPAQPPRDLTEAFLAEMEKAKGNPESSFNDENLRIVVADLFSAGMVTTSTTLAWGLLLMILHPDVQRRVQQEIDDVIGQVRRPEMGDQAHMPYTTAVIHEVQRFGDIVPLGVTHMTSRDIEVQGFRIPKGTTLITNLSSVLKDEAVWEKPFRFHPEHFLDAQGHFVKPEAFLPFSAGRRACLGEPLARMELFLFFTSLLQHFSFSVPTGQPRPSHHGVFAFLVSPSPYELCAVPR

[3] = male, Wistar-Hannover, rat, plasma, iv, 2 mg/kg, Mean, PF-00835231 active dosed 2mg/kg intravenous
[4] = male, Wistar-Hannover, rat, plasma, iv, 2 mg/kg, PF-00835231 active dosed 2mg/kg intravenous, individual rats
[5] = rat, PF-00835231 active dosed 2mg/kg intravenous, individual rats, 2 mg/kg

With `COc1cccc2[nH]c(C(=O)N[C@@H](CC(C)C)C(=O)N[C@@H](C[C@@H]3CCNC3=O)C(=O)CO)cc12` [PF-00835231] the IC50 (MATE1; IC50, [14C]Metformin (20 µM)) was 175 µM, the IC50 (MATE1; human, pH 7.4, IC50, [14C]Metformin (20 µM)) was greater than 20 µM and the IC50 (OAT1) was greater than 300 µM. For the same molecule, the IC50 (OAT1; human, HEK293 cells transfected with OAT1, pH 7.4, probe [3H] para-aminohippuric acid (0.5 µM)) was greater than 20 µM, the Vdss ([1]; Rat, 2mg/kg intravenous, individual animals, 2 mg/kg) was 1.02 L/kg and 0.58 L/kg and the AUC(0-inf) [1, 3] was 1250 ng·h/mL. It also gave an AUC(0-inf) [1, 4] of 1230 ng·h/mL, a clearance ([1]; male, Wistar-Hannover, rat, plasma, iv, 2 mg/kg, Clearance, Mean, PF-00835231 active dosed 2mg/kg intravenous) of 27 mL/min/kg and a clearance ([1]; male, Wistar-Hannover, rat, plasma, iv, 2 mg/kg, Clearance, PF-00835231 active dosed 2mg/kg intravenous, individual rats) of 27.1 mL/min/kg. It also gave a half-life ([1]; male, Wistar-Hannover, rat, plasma, iv, 2 mg/kg, Half life, Mean, PF-00835231 active dosed 2mg/kg intravenous) of 43.1 min, a half-life ([1]; male, Wistar-Hannover, rat, plasma, iv, 2 mg/kg, Half life, PF-00835231 active dosed 2mg/kg intravenous, individual rats) of 39.2 min and a half-life ([1]; male, Wistar-Hannover, rat, plasma, iv, 2 mg/kg, Terminal T1/2, rat IV, PF-07304814 […] (n=2, range), PF-00835231 2mg/kg (n=3, ± SD)) of less than 120 min. The Vd ([1]; male, Wistar-Hannover, rat, plasma, iv, 2 mg/kg, 2mg/kg intravenous, individual animals) was 0.637 L/kg, the Vd ([1]; male, Wistar-Hannover, rat, plasma, iv, 2 mg/kg, Mean, 2mg/kg intravenous) was 0.746 L/kg and the Vd [1, 3] was 0.746 L/kg. For the same molecule, the Vd [1, 4] was 0.637 L/kg, the Vd ([1]; male, Wistar-Hannover, rat, plasma, iv, 2 mg/kg, Vdss input) was 0.75 L/kg and the Vd ([1]; male, Wistar-Hannover, rat, plasma, iv, 2 mg/kg, rat IV, PF-07304814 […] (n=2, range), PF-00835231 2mg/kg (n=3, ± SD)) was less than 1.5 L/kg. It also gave a clearance ([1]; male, Wistar-Hannover, rat, plasma, iv, CL, rat IV, PF-07304814 […] (n=2, range), PF-00835231 2mg/kg (n=3, ± SD)) of 27 ± 3.1 mL/min/kg, a half-life ([1]; male, Wistar-Hannover, rat, plasma, iv, Terminal T1/2, rat IV, PF-07304814 […] (n=2, range), PF-00835231 2mg/kg (n=3, ± SD)) of 43.2 ± 7.2 min and a Vd ([1]; male, Wistar-Hannover, rat, plasma, iv, rat IV, PF-07304814 […] (n=2, range), PF-00835231 2mg/kg (n=3, ± SD)) of 0.75 ± 0.24 L/kg. For the same molecule, the bioavailability ([1]; male, Wistar-Hannover, rat, plasma, po, 2 mg/kg, Oral F%, rat, 2mg/kg PO vs IV) was 1.4 ± 0.76%, the AUC(0-t) ([1]; male, Wistar-Hannover, rat, plasma, po, 5 mg/kg, AUCt, Mean, PF-00835231 5mg/kg PO dose) was 12.8 ng·h/mL and the “Urine Concn” value ([1]; rat urine 0-7 h, PF-00835231 active dosed 2mg/kg intravenous, individual rats, 2 mg/kg) was 29200 ng/mL and 3180 ng/mL and 6320 ng/mL. For the same molecule, the “Urine Concn” value ([1]; rat urine 7-24 h, PF-00835231 active dosed 2mg/kg intravenous, individual rats, 2 mg/kg) was 234 ng/mL and 85.6 ng/mL and 368 ng/mL, the AUCt ([1]; rat, PF-00835231 5mg/kg PO dose, individual rats, 5 mg/kg) was 5.75 ng·h/mL and 18.5 ng·h/mL and 14.1 ng·h/mL and the AUCinf [1, 5] was 1110 ng·h/mL and 1400 ng·h/mL. For the same molecule, the Half life [1, 5] was 51.4 min and 38.7 min, the Vdss [1, 5] was 1.02 L/kg and 0.58 L/kg and the clearance [1, 5] was 30 mL/min/kg and 23.8 mL/min/kg. The “Oral F%” value ([1]; rat, 2mg/kg PO vs IV, 2 mg/kg) was less than 2%, the fraction unbound at 6 h, 5 uM ([2]; Beagle, pH 7.4, Fraction unbound, Geomean, Dog plasma, 5.0 uM, n 12) was 0.416 and the fraction unbound at 6 h, 5 uM ([2]; Beagle, pH 7.4, Individual fraction unbound, Dog Beagle plasma, 5.0 uM, replicates Day 1-3) was 0.401. For the same molecule, the Individual fraction unbound ([2]; Dog Beagle plasma, 5.0 uM, replicates Day 1-3) was 0.386 and 0.435 and 0.45 and 0.406 and 0.488 and 0.451 and 0.403 and 0.342 and 0.444 and 0.382 and 0.419, the fraction unbound at 6 h ([2]; pH 7.4, Plasma fu, Vdss input) was 0.416 and the fraction unbound at 6 h ([2]; pH 7.4, Unbound fraction fu (%CV), dog plasma) was 0.416. The fraction unbound at 6 h, 5 uM ([2]; pH 7.4, fraction unbound Geomean, dog plasma, 5.0 uM, n=12) was 0.416, the “Percent of Control Activity” value (CYP2D6; CYP 2D6, 0.1 µM, 30-Minute Preincubation, 0.1 µM) was 92.9% and 101.4% and the “Percent of Control Activity” value (CYP2D6; CYP 2D6, 0.1 µM, Zero-Minute Preincubation, 0.1 µM) was 87.8% and 108.7%. For the same molecule, the “Percent of Control Activity” value (CYP2D6; CYP 2D6, 0.214 µM, 30-Minute Preincubation, 0.214 µM) was 106.1% and the “Percent of Control Activity” value (CYP2D6; CYP 2D6, 0.214 µM, Zero-Minute Preincubation, 0.214 µM) was 101.0% and 100.2%.
